d = 2'-deoxy (DNA); m = 2'-O-methyl
Target: cGAS (Homo sapiens, UniProt Q8N884)
Assay: ISD70-driven IP-10 production in HT-29 cells, ELISA
Type: cell-based
Set-up: endogenous in cells
Conditions: 187.5 nM ASO overnight, ISD70 24 h

Sequence of cGAS (Q8N884 whole entry): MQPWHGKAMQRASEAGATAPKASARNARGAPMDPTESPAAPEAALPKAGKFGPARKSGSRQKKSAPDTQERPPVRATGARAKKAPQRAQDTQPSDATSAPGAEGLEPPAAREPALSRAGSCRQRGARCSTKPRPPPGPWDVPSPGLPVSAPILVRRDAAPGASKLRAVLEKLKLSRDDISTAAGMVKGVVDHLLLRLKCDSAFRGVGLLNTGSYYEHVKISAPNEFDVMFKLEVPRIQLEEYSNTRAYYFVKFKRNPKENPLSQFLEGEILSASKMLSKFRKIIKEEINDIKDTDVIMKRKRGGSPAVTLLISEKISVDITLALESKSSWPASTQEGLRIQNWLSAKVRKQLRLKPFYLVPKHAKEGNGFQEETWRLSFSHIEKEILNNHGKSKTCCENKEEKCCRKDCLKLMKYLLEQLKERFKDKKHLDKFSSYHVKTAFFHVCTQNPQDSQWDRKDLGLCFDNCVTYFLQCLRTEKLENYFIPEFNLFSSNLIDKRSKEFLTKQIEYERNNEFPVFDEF

mG*mC*mA*mG*mU*C*T*C*C*A*T*G*T*C*C*mC*mA*mG*mG*mC (GCAGUCTCCATGTCCCAGGC; antisense; sugars from the 5' end m5 d10 m5, all phosphorothioate, methylation of C not given here) [[CDKN2B-AS1]2234]
inhibition of ISD70-dependent IP-10 production (in words): robustly inhibited ISD70-dependent IP-10 production

— patent publication US20240384268A1, “Oligonucleotides” (Hudson Institute of Medical Research, priority 2021, published 2024)
